Consider 21 molecules from patent US20240043427A1 (Gilead Sciences, Inc., priority 2020, published 2024).

The target in assay [1] is T1, CD73 (Homo sapiens (Human), UniProt P21589). It is filed as biochemical. Particulars: 1 mM NaH2PO4 in enzyme buffer, CD73 0.3 nM, AMP 15 uM.
Assay [2] concerns the target T1, CD73. As to the kind of experiment: MDA-MB-231 Cell Based CD73 Activity Assay (DMEM). The settings on record: MDA-MB-231-GFP cells, DMEM medium with 10% human plasma, 200 uM AMP.

Where only a bound is given, the exact number is not on record here.

T1 sequence (P21589 27-574): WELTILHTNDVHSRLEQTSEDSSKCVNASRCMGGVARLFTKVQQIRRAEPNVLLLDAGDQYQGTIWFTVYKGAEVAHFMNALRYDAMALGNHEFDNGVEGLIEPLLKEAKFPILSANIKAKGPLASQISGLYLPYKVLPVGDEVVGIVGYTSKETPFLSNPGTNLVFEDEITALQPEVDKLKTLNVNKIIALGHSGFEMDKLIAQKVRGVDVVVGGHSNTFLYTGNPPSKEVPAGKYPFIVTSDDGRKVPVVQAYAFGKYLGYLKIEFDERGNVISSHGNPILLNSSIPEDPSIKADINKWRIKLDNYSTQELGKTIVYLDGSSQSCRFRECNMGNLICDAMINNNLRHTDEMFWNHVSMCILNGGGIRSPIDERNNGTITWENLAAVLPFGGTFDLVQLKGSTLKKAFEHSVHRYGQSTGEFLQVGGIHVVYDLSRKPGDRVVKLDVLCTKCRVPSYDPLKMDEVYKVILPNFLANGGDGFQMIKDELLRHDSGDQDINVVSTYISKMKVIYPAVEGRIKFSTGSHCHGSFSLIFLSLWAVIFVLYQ

Broadly, the IC50 is the concentration that inhibits the measured activity by half. As usually defined, the EC50 is the concentration at which the effect is half-maximal. Low readings indicate greater potency, high ones weaker potency. Consider `O=c1[nH]cc(-c2cc(N3CC[C@@H](Oc4ccc(F)cc4)C3)c3nccn3n2)c(=O)[nH]1` [Example 240, (R)-5-(8-(3-(4-fluorophenoxy)pyrrolidin-1-yl)imidazo[1,2-b]pyridazin-6-yl)pyrimidine-2,4(1H,3H)-dione], for which it took 0.00028 µM to reach half-maximal inhibition in assay [1] (IC50). In assay [2], this molecule registered an EC50 of 0.00379 µM.

In turn, `O=C(Nc1ccccc1F)O[C@H]1CN(c2cc(-c3c[nH]c(=O)[nH]c3=O)nn3ccnc23)CC1(F)F` [Example 241, (S)-1-(6-(2,4-dioxo-1,2,3,4-tetrahydropyrimidin-5-yl)imidazo[1,2-b]pyridazin-8-yl)-4,4-difluoropyrrolidin-3-yl (2-fluorophenyl)carbamate] had an IC50 in assay [1] of 0.00213 µM. In assay [2], the EC50 turned out to be 0.00141 µM.

In assay [1], `O=c1[nH]cc(-c2cc(N3CCC(Oc4ccccc4)C3)c3nccn3n2)c(=O)[nH]1` (stereo not drawn) [Example 242, 5-(8-(3-phenoxypyrrolidin-1-yl)imidazo[1,2-b]pyridazin-6-yl)pyrimidine-2,4(1H,3H)-dione] came in with an IC50 of 0.00022 µM. The EC50 in assay [2] was 0.00243 µM.

Take `CC1(O)CCN(c2cc(-c3c[nH]c(=O)[nH]c3=O)nn3ccnc23)C1` (stereo not drawn) [Example 243, 5-(8-(3-hydroxy-3-methylpyrrolidin-1-yl)imidazo[1,2-b]pyridazin-6-yl)pyrimidine-2,4(1H,3H)-dione]: 0.0222 µM corresponded to half-maximal inhibition in assay [1] (IC50). In assay [2], the EC50 was 0.0561 µM.

`O=c1[nH]cc(-c2cc(N3CC(F)(C(F)(F)F)C3)n3nccc3n2)c(=O)[nH]1` [Example 244, 5-(7-(3-fluoro-3-(trifluoromethyl)azetidin-1-yl)pyrazolo[1,5-a]pyrimidin-5-yl)pyrimidine-2,4(1H,3H)-dione] yielded an IC50 in assay [1] of 0.108 µM. The same molecule yielded a half-maximal effective concentration (EC50) in assay [2] of 0.574 µM.

`CC(=O)NC1CCN(c2cc(-c3c[nH]c(=O)[nH]c3=O)nc3ccnn23)C1` (stereo not drawn) [Example 245, N-(1-(5-(2,4-dioxo-1,2,3,4-tetrahydropyrimidin-5-yl)pyrazolo[1,5-a]pyrimidin-7-yl)pyrrolidin-3-yl)acetamide] registered an IC50 in assay [1] of 0.17 µM. In addition, in assay [2], it took 0.747 µM to reach a half-maximal effect (EC50).

As for `CC1(O)CCN(c2cc(-c3c[nH]c(=O)[nH]c3=O)nc3ccnn23)C1` (stereo not drawn) [Example 246, 5-(7-(3-hydroxy-3-methylpyrrolidin-1-yl)pyrazolo[1,5-a]pyrimidin-5-yl)pyrimidine-2,4(1H,3H)-dione], the midpoint of inhibition in assay [1], the IC50, lay at 0.168 µM. This molecule also returned an EC50 in assay [2] of 0.213 µM.

Molecule `N#Cc1ccc(C2CN(c3cc(-c4c[nH]c(=O)[nH]c4=O)nn4ccnc34)C2)cc1` [Example 247, 4-(1-(6-(2,4-dioxo-1,2,3,4-tetrahydropyrimidin-5-yl)imidazo[1,2-b]pyridazin-8-yl)azetidin-3-yl)benzonitrile] displayed an IC50 in assay [1] of 0.0419 µM. Further, a half-maximal response in assay [2] (EC50) required 0.0936 µM.

`O=c1[nH]cc(-c2cc(N3CCC(c4ccc(C(F)(F)F)cc4)C3)c3nccn3n2)c(=O)[nH]1` (stereo not drawn) [Example 248, 5-(8-(3-(4-(trifluoromethyl)phenyl)pyrrolidin-1-yl)imidazo[1,2-b]pyridazin-6-yl)pyrimidine-2,4(1H,3H)-dione] showed an IC50 in assay [1] of 0.0151 µM. Besides, the EC50 in assay [2] came out at 0.0363 µM.

In assay [1], `O=c1[nH]cc(-c2cc(N3CCC(c4cccc(C(F)(F)F)c4)C3)c3nccn3n2)c(=O)[nH]1` (stereo not drawn) [Example 249, 5-(8-(3-(3-(trifluoromethyl)phenyl)pyrrolidin-1-yl)imidazo[1,2-b]pyridazin-6-yl)pyrimidine-2,4(1H,3H)-dione] registered an IC50 of 0.0461 µM. In assay [2], this molecule came in with an EC50 of 0.249 µM.

With `O=c1[nH]cc(-c2cc(N3CCC(c4ccccc4C(F)(F)F)C3)c3nccn3n2)c(=O)[nH]1` (stereo not drawn) [Example 250, 5-(8-(3-(2-(trifluoromethyl)phenyl)pyrrolidin-1-yl)imidazo[1,2-b]pyridazin-6-yl)pyrimidine-2,4(1H,3H)-dione], half-maximal inhibition in assay [1] (IC50) required 0.11 µM. This molecule also gave an EC50 in assay [2] of 0.687 µM.

Regarding `COc1ccc(C2CN(c3cc(-c4c[nH]c(=O)[nH]c4=O)nn4ccnc34)C2)cc1` [Example 251, 5-(8-(3-(4-methoxyphenyl)azetidin-1-yl)imidazo[1,2-b]pyridazin-6-yl)pyrimidine-2,4(1H,3H)-dione], the IC50 in assay [1] came out at 0.0176 µM. The molecule further displayed an EC50 in assay [2] of 0.125 µM.

In assay [1], `O=c1[nH]cc(-c2cc(N3CC(c4ccc(OC(F)(F)F)cc4)C3)c3nccn3n2)c(=O)[nH]1` [Example 252, 5-(8-(3-(4-(trifluoromethoxy)phenyl)azetidin-1-yl)imidazo[1,2-b]pyridazin-6-yl)pyrimidine-2,4(1H,3H)-dione] registered an IC50 of 0.174 µM. In assay [2], the EC50 is 1.24 µM.

`O=c1[nH]cc(-c2cc(N3CCC(F)(c4ccccc4)C3)c3nccn3n2)c(=O)[nH]1` (stereo not drawn) [Example 253, 5-(8-(3-fluoro-3-phenylpyrrolidin-1-yl)imidazo[1,2-b]pyridazin-6-yl)pyrimidine-2,4(1H,3H)-dione] yielded an IC50 in assay [1] of 0.02 µM. Also, the EC50 in assay [2] was 0.16 µM.

For the molecule `O=c1[nH]cc(-c2cc(N3CCC4CC43)c3nccn3n2)c(=O)[nH]1` (stereo not drawn) [Example 254, 5-(8-(2-azabicyclo[3.1.0]hexan-2-yl)imidazo[1,2-b]pyridazin-6-yl)pyrimidine-2,4(1H,3H)-dione], the IC50 in assay [1] turned out to be 0.0266 µM. The molecule further registered an EC50 in assay [2] of 0.136 µM.

In assay [1], `O=c1[nH]cc(-c2cc(N3CCC(F)(c4ccc(F)cc4)C3)c3nccn3n2)c(=O)[nH]1` (stereo not drawn) [Example 255, 5-(8-(3-fluoro-3-(4-fluorophenyl)pyrrolidin-1-yl)imidazo[1,2-b]pyridazin-6-yl)pyrimidine-2,4(1H,3H)-dione] gave an IC50 of 0.0175 µM. The same molecule gave an EC50 in assay [2] of 0.113 µM.

`O=c1[nH]cc(-c2cc(N3CCC(F)(c4ccc(C(F)(F)F)cc4)C3)c3nccn3n2)c(=O)[nH]1` (stereo not drawn) [Example 256, 5-(8-(3-fluoro-3-(4-(trifluoromethyl)phenyl)pyrrolidin-1-yl)imidazo[1,2-b]pyridazin-6-yl)pyrimidine-2,4(1H,3H)-dione] yielded an IC50 in assay [1] of 0.0431 µM. Also, the EC50 in assay [2] came to 0.185 µM.

With `O=c1[nH]cc(-c2cc(N3CCC4CCC43)c3nccn3n2)c(=O)[nH]1` (stereo not drawn) [Example 257, 5-(8-(2-azabicyclo[3.2.0]heptan-2-yl)imidazo[1,2-b]pyridazin-6-yl)pyrimidine-2,4(1H,3H)-dione], the IC50 in assay [1] is 0.0517 µM. In assay [2], this molecule had an EC50 of 0.103 µM.

Regarding `O=c1[nH]cc(-c2cc(N3CC(c4ccc(F)cc4)C3)c3nccn3n2)c(=O)[nH]1` [Example 258, 5-(8-(3-(4-fluorophenyl)azetidin-1-yl)imidazo[1,2-b]pyridazin-6-yl)pyrimidine-2,4(1H,3H)-dione], the IC50 in assay [1] was found to be 0.0524 µM. For the same molecule, the EC50 in assay [2] was found to be 0.106 µM.

Take `O=c1[nH]cc(-c2cc(N3CC(F)(c4ccccc4)C3)c3nccn3n2)c(=O)[nH]1` [Example 259, 5-(8-(3-fluoro-3-phenylazetidin-1-yl)imidazo[1,2-b]pyridazin-6-yl)pyrimidine-2,4(1H,3H)-dione]: half-maximal inhibition in assay [1] (IC50) was put at 0.0147 µM. It took 0.0807 µM to reach a half-maximal effect in assay [2] (EC50).

In assay [1], `O=c1[nH]cc(-c2cc(N3CCC4(CC4)C(F)(F)C3)c3nccn3n2)c(=O)[nH]1` [Example 260, 5-(8-(4,4-difluoro-6-azaspiro[2.5]octan-6-yl)imidazo[1,2-b]pyridazin-6-yl)pyrimidine-2,4(1H,3H)-dione] returned an IC50 of over 0.25 µM. Moreover, the EC50 in assay [2] amounted to 0.963 µM.
